Test [1] has as its system CD20+ cells over CD20- cells of a B-cell lymphoblastic lymphoma patient. Description: ex vivo selectivity of compounds to kill cancerous versus non-cancerous cells, pleural effusion of B-LBL patient (Example 7). Type of test: cell-based, human. The note with it: fraction of live cancerous cells of live total cells relative to DMSO control, <1 = selectively kills cancerous cells.

Test [2] relates to CD79a+ cells over CD79a- cells of a diffuse large B-cell lymphoma patient. Briefly: ex vivo selectivity of compounds to kill cancerous versus non-cancerous cells, excised lymph node of DLBCL patient (Example 8). The note with it: fraction of live cancerous cells of live total cells relative to DMSO control; dissociated lymph node cells; <1 = selectively kills cancerous cells. Type of test: cell-based, human.
Protocol: Monolayers were incubated overnight (18 h). […] Unstained cells were considered non-cancerous cells.

For the compound `Sc1ncnc2nc[nH]c12` [6-mercaptopurine], in test [1], the “value/selectivity determined according to the present invention” value is listed as 0.58. `CC(C)C[C@H](NC(=O)[C@H](Cc1ccccc1)NC(=O)c1cnccn1)B(O)O` [bortezomib] came in with a value/selectivity in test [2] of 0.59. Further, the “value/selectivity determined according to the present invention” value in test [1] came out at 0.50. In test [2], `Nc1nc(Cl)nc2c1ncn2[C@H]1C[C@H](O)[C@@H](CO)O1` [cladribine] gave a value/selectivity of 0.73.

Values taken from patent US20210181183A1, “METHODS FOR DETERMINING SELECTIVITY OF TEST COMPOUNDS” (CEMM - FORSCHUNGSZENTRUM FÜR MOLEKULARE MEDIZIN GmBH, priority 2017, published 2021).
